Assay results: article PMC5303819, “Cryptic bioactivity capacitated by synthetic hybrid plant peptides” (Nature Communications, 2017)
Each block holds one substance with its values, some of them ahead of it.

Tests used:
[1] = test system: hypocotyl stele; assay: Stele-thickening assay (hypocotyl stele width); type: in vivo, Arabidopsis thaliana; details: for effect on stele radial growth / stele width: 10 μM peptide, liquid medium, 10-day-old hypocotyl, Fig. 1e,f
Experimental: (§1) For the observation of stele and leaf vein, seeds were germinated and cultured with shaking at 110 r.p.m. at 22 °C under continuous light in liquid half-strength MS medium supplemented with 1% sucrose and peptide/control solution. 10-day-old seedlings were fixed in a 1:3 mixture of acetic acid/ethanol, washed with water and mounted in clearing solution (chloral hydrate/glycerol/water=8:1:2) before imaging with a light microscope (Axio Imager.A2, Zeiss).

[2] = test system: Arabidopsis thaliana root; details: cited from earlier work
Excerpt: CLV3-like activities have also been reported in other 18 CLE peptides. […] We analysed the structure–activity relationship between CLV3 (Fig. 1a, peptide 1) and CLE25 (Fig. 1a, peptide 2) by swapping the residues at 2nd, 5th, 10th and 12th positions (Fig. 1a, peptide 3–16). […] Although all the chimera peptides shortened the root, only the peptide 15, hereafter call ...

[3] = test system: Arabidopsis thaliana root; assay: Root-shortening assay (root length); type: in vivo; details: for root-shortening activity: 1 μM peptide, 14-day-old root length, Fig. 1b, n=13-20; for CLV3-type activity: root 1 µM (stele 10 µM), Supplementary Fig. 8
Experimental: (§2) For root-length measurement, plants were germinated and grown vertically on half-strength Murashige and Skoog (MS) medium supplemented with 1% sucrose and peptide/control solution at 22 °C under continuous light. To observe the RAM, 4-day-old roots were excised and mounted in clearing solution (chloral hydrate/glycerol/water=8:1:2) before imaging with light microscope (Axio Imager.A2, Zeiss).

[4] = test system: root apical meristem (RAM); assay: Root apical meristem (RAM) morphology; type: in vivo, Arabidopsis thaliana; details: 1 μM peptide, 4-day-old, wild type, Fig. 1c
Experimental: as §2

[5] = target: T1, CLV1 ectodomain (CLV1-HT) (Arabidopsis thaliana, UniProt Q9SYQ8); assay: Photo-affinity labelling with [125I]ASA-KIN, CLV1; type: binding
T1 construct: applied it to the membrane fractions containing receptor ectodomains expressed in tobacco cells; made in house; host or cells: tobacco BY-2 cells (microsomal fraction)
T1 sequence (Q9SYQ8 25-638 limits assumed): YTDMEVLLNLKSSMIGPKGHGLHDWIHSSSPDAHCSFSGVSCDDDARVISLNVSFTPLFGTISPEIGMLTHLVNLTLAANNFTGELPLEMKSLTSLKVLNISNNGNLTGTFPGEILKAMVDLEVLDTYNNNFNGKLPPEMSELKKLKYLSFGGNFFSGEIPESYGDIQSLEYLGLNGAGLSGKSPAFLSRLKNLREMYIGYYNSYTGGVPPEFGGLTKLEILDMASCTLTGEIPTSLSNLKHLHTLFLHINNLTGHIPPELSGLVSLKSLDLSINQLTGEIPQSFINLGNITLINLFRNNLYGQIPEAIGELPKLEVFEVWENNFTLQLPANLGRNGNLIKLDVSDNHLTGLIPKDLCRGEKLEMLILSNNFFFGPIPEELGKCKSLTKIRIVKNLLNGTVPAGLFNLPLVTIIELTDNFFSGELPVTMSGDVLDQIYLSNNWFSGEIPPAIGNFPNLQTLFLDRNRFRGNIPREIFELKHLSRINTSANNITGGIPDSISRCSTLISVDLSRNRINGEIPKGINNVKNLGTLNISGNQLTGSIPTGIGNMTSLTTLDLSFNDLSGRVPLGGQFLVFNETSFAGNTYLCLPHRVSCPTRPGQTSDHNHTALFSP
Experimental: (§3) Aliquots (1,000 μg) of microsomal proteins for Halo-tagged receptors (CLV1-HT[10], TDR-HT[7] and CLV2-HT[20]) from tobacco BY-2 cells were suspended in 250 μl binding buffer (50 mM MES-KOH pH 5.5 with 100 mM sucrose) containing 30 nM [^125I]ASA-KIN in the presence or absence of various concentrations of competitor peptides indicated in corresponding figure legends and then incubated for 10 min on ice. The bound and free [^125I]ASA-KIN were separated by layering the reaction mixture onto 900 μl of wash buffer (50 mM MES-KOH pH 5.5 with 500 mM sucrose) and centrifuging for 5 min at 100,000 g at 4 °C. After discarding the supernatant, the pellet was irradiated on ice for 20 min with an ultraviolet lamp (model ENF-260C/J (365 nm), Spectronics Co. Ltd) at a distance of 1 cm. The cross-linked membrane proteins were solubilized, immunoprecipitated by using HaloTag antibody and separated by SDS–PAGE on a 7.5% acrylamide gel. The dried gels were exposed to the bio-imaging plate (MS 2,025, Fujifilm) for 2 days at room temperature and the plates were analysed using a bio-imaging analyser (Typhoon FLA 900, GE).

[6] = test system: shoot apical meristem (SAM); assay: Shoot apical meristem (SAM) morphology in sections; type: in vivo, Arabidopsis thaliana; details: 10 μM peptide, 10-day treatment
Experimental: To observe the SAM, plants were germinated and grown at 22 °C under continuous light on half-strength MS medium supplemented with 1% sucrose and 10 μM peptide/control solution. To make sections, roots and leaves were cut off from 10-day-old seedlings, then fixed in FAA solution (50% ethanol:10% formalin:5% acetic acid in water) and embedded into Technovit 7,100 resin according to the manufacturer's instructions (Heraeus Kulzer). Four-micrometre-thin sections were made using a microtome (RM2235, Leica), stained with 0.05% toluidine blue and mounted in Entellan New (Merck) before observation with a light microscope (Axio Imager.A2, Zeiss).

[7] = test system: leaf vein xylem strands; assay: Leaf vein xylem strand observation; type: in vivo, Arabidopsis thaliana; details: 10 μM peptide, 10-day-old clv2-101, Fig. 2c
Experimental: as §1

[8] = target: T2, TDR ectodomain (TDR-HT) (Arabidopsis thaliana, UniProt Q9FII5); assay: Photo-affinity labelling with [125I]ASA-KIN, TDR; type: binding
T2 construct: applied it to the membrane fractions containing receptor ectodomains expressed in tobacco cells; made in house; host or cells: tobacco BY-2 cells (microsomal fraction)
T2 sequence (Q9FII5 30-652 limits assumed): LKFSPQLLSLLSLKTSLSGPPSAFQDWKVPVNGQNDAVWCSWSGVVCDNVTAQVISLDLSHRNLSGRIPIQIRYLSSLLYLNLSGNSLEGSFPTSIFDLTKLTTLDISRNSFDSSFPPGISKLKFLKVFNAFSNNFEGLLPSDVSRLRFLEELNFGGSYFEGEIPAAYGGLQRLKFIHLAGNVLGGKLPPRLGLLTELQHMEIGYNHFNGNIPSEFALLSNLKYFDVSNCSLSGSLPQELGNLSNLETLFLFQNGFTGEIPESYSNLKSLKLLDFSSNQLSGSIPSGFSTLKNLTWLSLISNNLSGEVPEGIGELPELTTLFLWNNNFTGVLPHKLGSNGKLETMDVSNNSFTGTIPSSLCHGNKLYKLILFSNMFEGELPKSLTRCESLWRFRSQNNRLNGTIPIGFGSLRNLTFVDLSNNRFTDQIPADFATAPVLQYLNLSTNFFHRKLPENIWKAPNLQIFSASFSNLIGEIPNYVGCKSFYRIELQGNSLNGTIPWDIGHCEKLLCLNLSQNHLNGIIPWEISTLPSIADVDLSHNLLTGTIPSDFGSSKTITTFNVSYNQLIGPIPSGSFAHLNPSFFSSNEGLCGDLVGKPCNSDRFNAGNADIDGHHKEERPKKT
Experimental: as §3

[9] = target: T3, CLV2 ectodomain (CLV2-HT) (Arabidopsis thaliana, UniProt O80809); assay: Photo-affinity labelling with [125I]ASA-KIN, CLV2; type: binding; details: 30 nM [125I]ASA-KIN probe, same condition, Supplementary Fig. 6
T3 construct: made in house; host or cells: tobacco BY-2 cells (microsomal fraction)
T3 sequence (O80809 26-686 limits assumed): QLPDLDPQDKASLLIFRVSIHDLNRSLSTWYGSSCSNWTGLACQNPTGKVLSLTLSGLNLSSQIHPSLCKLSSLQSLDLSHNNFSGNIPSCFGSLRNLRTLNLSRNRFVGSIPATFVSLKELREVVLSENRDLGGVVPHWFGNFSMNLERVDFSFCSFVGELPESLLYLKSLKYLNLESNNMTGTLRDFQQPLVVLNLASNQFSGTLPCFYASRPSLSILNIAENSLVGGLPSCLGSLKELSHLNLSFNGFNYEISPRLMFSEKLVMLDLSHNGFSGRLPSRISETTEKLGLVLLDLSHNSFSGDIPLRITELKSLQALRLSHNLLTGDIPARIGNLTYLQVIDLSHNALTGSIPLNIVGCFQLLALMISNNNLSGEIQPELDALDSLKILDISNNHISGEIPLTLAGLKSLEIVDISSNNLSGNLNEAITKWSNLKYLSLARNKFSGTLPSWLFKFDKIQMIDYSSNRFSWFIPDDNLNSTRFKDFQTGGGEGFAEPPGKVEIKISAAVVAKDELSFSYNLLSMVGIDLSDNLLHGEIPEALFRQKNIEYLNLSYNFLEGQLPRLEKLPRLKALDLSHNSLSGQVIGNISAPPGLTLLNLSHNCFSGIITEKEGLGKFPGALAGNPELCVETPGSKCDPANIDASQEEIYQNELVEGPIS
Experimental: as §3

[10] = wild type, Supplementary Fig. 1
[11] = 30 nM probe, MES-KOH pH 5.5, 10 min on ice, tobacco BY-2 microsomes, Fig. 3c
[12] = various concentrations of KIN, Supplementary Fig. 7

Substance: CLE25: endogenously encoded CLE peptide sequence, CLV3-type, synthesized without hydroxyprolines (RKVPNGPDPIHN; CLE25p no hydroxyprolines; UniProt Q8LFL4 58-69, looked up)
effect on stele radial growth / stele width ([1]; wild type, 2b): reduce the thickening of vascular tissues in the hypocotyl | effectiveness in the root-shortening assay [2]: more effective than CLV3 | root-shortening activity ([3]; wild type): showed root-shortening activities | concentration at which bioactivity starts in root shortening assay [3, 10]: ~ 100 nM | size of the root apical meristem (RAM) [4]: reduced

Substance: CLV3-S^11th: CLV3 with H-to-S substitution at the 11th position (RTVPSGPDPLSHH; MCLV3; UniProt Q9XF04 70-82, looked up, variant H11S)
CLE41-type activity ([1]; stele 10 µM, Supplementary Fig. 8): neither CLV3 nor CLE41 activity | CLV3-type activity [3]: neither CLV3 nor CLE41 activity | CLV3-type activity ([3]; listed as peptide 24): even weaker than KIN-1δ | interaction with CLV1 in competitive displacement assay with [125I]ASA-KIN ([5]; Supplementary Fig. 10): retained the interaction with CLV1

Substance: [(4-azidosalicyl)Lys^2]KIN [ASA-KIN]
bioactivity compared with KIN, hypocotyl stele thickening ([1]; Supplementary Fig. 5c): reduced compared with the original KIN | bioactivity compared with KIN, root shortening ([3]; 10 nM-1 µM, Supplementary Fig. 5b): reduced compared with the original KIN

More lines, main results first:

competition of [125I]ASA-KIN labelling of CLV1 ([5]; 1,000-fold excess non-radio-labelled peptide, Fig. 3c): competitively inhibited
Substance: CLV3: endogenously encoded 12 amino-acid CLE peptide, chemically synthesized without hydroxyprolines
response of clv2-101 mutant to inhibitory activity on stele width ([1]; 100 nM peptide, clv2-101 mutant, Fig. 2b): insensitive | effect on stele width at 100 nM ([1]; 100 nM peptide, wild type, 10-day-old, Fig. 1g, 2b): reduced the stele width | effect on stele radial growth / stele width ([1]; wild type, 2b): reduced radial growth of the stele | lowest concentration with negative effect on stele growth ([1]; wild type, 10-day-old, dose-response Fig. 1g): 30 nM | SAM of clv1-101 and clv2-101 mutants after treatment ([6]; loss-of-function mutants, Fig. 2a): maintained | effect on SAM ([6]; wild type, Fig. 1d): disappeared | root-shortening activity ([3]; wild type): showed root-shortening activities | response of clv2-101 mutant, root length and RAM size ([3]; clv2-101 mutant, Supplementary Fig. 3a,b): resistant | dose-response of root growth attenuation ([3]; wild type, 1 nM-1 µM, Supplementary Fig. 1): attenuates the root growth in a lower concentration than CLE25 and KIN | concentration at which bioactivity starts in root shortening assay [3, 10]: ~ 10 nM | size of the root apical meristem (RAM) [4]: reduced | effect on xylem differentiation in leaf vein [7]: not observed

photo-affinity labelling of TDR ectodomain [8, 11]: covalently labelled | photo-affinity labelling of CLV1 ectodomain [5, 11]: covalently labelled | interaction with CLV2 ectodomain [9]: no interaction was detected
Substance: [^125I]-radiolabelled [(4-azidosalicyl)Lys^2]KIN [[^125I]ASA-KIN]
competitive displacement of probe binding to TDR by KIN [8, 12]: binds to these receptors in a similar manner | competitive displacement of probe binding to CLV1 by KIN [5, 12]: binds to these receptors in a similar manner
